From US20210308077A1, “COMBINATIONS INCLUDING BETA-ADRENORECEPTOR AGONISTS FOR TREATMENT OF PARKINSON`S DISEASE AND MOVEMENT DISORDERS” (The Brigham and Women`s Hospital, Inc., priority 2017, published 2021)

Tests used:
SNCA mRNA = experiment: endogenous SNCA mRNA expression in SK-N-MC neuroblastoma cells (screening, replication, confirmation; qPCR); type: cell-based, human
Procedure: Human neuroblastoma SK-N-MC cells were acquired from American Type Culture Collection (ATCC). Cells were cultured at 37° C. in 5% CO2 in DMEM/F12 supplemented with 10% fetal bovine serum (FBS) and 100 units per ml penicillin and streptomycin. The drug library was obtained from the Laboratory for Drug Discovery in Neurodegeneration (LDDN), Harvard NeuroDiscovery Center, Boston, Mass. The drug library consisted of approximately 1,126 small molecules. About 586 of the compounds were from Prestwick Chemical's (Illkirch, France) library, a unique collection of mostly off-patent small organic molecules, 90% being marketed drugs and 10% bioactive alkaloids or related substances. About 400 compounds were from the SPECS collection (available on the world wide web at.specs.net). 140 compounds generated in house by the LDDN were also included in the library. Compounds for the screening were stored as DMSO stocks. All drugs used for Confirmation Assay were purchased from Sigma (St. Louis, Mo.).
Approximately 2×10^4low passage SK-N-MC cells were seeded per well in 384-well cell culture plates for 24 hours. Compounds were then transferred into each well (final concentration 1 μM) by using a BioMekFX (Beckman Coulter) equipped with a 384-channel pipetting head. After 48 hours in cell culture incubator, cells were washed once in cold phosphate-buffered saline (PBS) by using BioTek ELx405 select CW plate washer and then lysed at room temperature (22-24° C.) with lysis buffer (Applied Biosystems) using the Cell-to-CT procedures according to the manufacturer's instructions (Applied Biosystems). After 5 min, lysis was terminated by incubation with stop solution (Applied Biosystems). 11 μL of each lysate were transferred to 384-well plates for RT in a total volume of 25 μl. 4 μL of RT reaction were then transferred to new 384-well plates for qPCR.
Using the Cell-to-CT kit (Applied Biosystems) we performed expression analysis directly from SK-N-MC neuroblastoma cells cultured in 384-well plates through in situ cDNA synthesis. In this miniaturized assay, high copy numbers of SNCA and of endogenous controls were detected as indicated by raw cycle threshold values of 25.11±0.02 (mean CT value±SEM) and 20.2±0.02 for SNCA and Ubiquitin C (UBC), respectively. Technical variation (using identical cDNA loaded in multiple wells) and biological variation (cDNA synthesized in situ in each of 384 wells of cultured SK-N-MC cells treated with DMSO) were low, with coefficients of variation of 1% and 5.2% respectively. At least ten DMSO-treated controls were included on each 384-well plate as negative external control and calibrator. An equal amount of cDNA derived from Universal Reference RNA was spotted on all plates as plate-to-plate control. Control reactions lacking template or reverse transcription were assayed for contamination with genomic DNA.
41 compounds were forwarded into the Replication Assay. For each compound eight wells were treated with drug and compared to eight wells treated with DMSO alone. The Cell-to-CT procedure was employed using two new reference genes, ribosomal protein L13 (RPL13) and glucuronidase beta (GUSB) (instead of UBC) to control for input RNA. […] 10 compounds met these criteria and were forwarded from the Replication into the Confirmation Assay.
The ten forwarded compounds were used in the Confirmation Assay. For each compound ten wells were treated with drug and compared to ten wells treated with DMSO alone. RNA was extracted using TRIzol® following the manufacturers protocol (Life Technologies). Freshly ordered compounds were used. […] Six compounds met these criteria and were forwarded from the Confirmation Assay to the ELISA Assay stage (see below).
Total RNA from flash-frozen mice brain tissue, rodent primary cells, human neuroblastoma cells and iPSC-derived neuronal cells was isolated using TRIzol® (Life Technologies) following the manufacturer's protocol. […]

α-synuclein protein = α-synuclein protein in rat primary cortical neurons (ELISA); type: cell-based; settings: metaproterenol 5 μM, clenbuterol 20 μM, salbutamol 10 μM, 72 hours
Procedure: Primary cortical cultures were generated from E18 Sprague-Dawley rat embryos. The cortical region was dissected out in Hank's Balanced Salt Solution buffered with Hepes and dissociated with 0.125% trypsin (Invitrogen) for 17 min at 37 ° C., followed by trituration. Dissociated cells were plated at a density of 5×10^5 cells/well or 2.5×10^5 cells/well in 12-well or 24-well plates, respectively precoated with poly-D lysine (100 μg/mL). The cells were cultured in Neurobasal medium with B-27 supplement (Invitrogen) and glutamax and gentamycin. Half of the medium was changed every 4 days. Cortical neurons were treated with β2AR agonists 10 days post plating. They were then harvested 48 hours post-treatment for mRNA extraction and 72 hours post-treatment for protein extraction.
Protein lysis buffer containing 320 mM sucrose, 5 mM NaF, 1 mM Na3VO4, 10 mM Tris (pH 7.4), 1 mM EGTA, and 1 mM EDTA was used for mice brain tissue lysis. 100 μL of cold extraction buffer was added to each sample and homogenized in a dounce homogenizer. […] Total protein concentrations were determined by BCA assay (Thermo Scientific) according to the manufacturer's instructions. Total α-synuclein was quantified using an α-synuclein-specific sandwich ELISA.
An α-synuclein-specific Meso Scale Discovery (MSD) ELISA assay (described in Ref. (11)) was utilized for endogenous α-synuclein protein measurement. […] After samples were emptied and plate washed 3 times with TBS-T, sulfo-tagged SOY1 mAb (detection Ab) (generated using Sulfo-Tag-NHS-Ester (MSD) diluted in blocking buffer (6.7 ng/μl), was added to the plate (30 μl volumes/well) and shaken for 1 hour at room temperature. Following 3 washes, MSD Read (2×, diluted in ultrapure water) buffer was added and the plates were immediately measured using a MSD Sector 2400 imager. For confirmatory studies, an second α-synuclein-specific ELISA implementation was used employing a different, extensively published anti-α-synuclein detection antibody (Syn-1 mAb) and a different anti-α-synuclein capture antibody (1H9, courtesy Dr. Selkoe).

SMILES | endogenous SNCA mRNA under β2AR antagonism (SNCA mRNA; SK-N-MC cells) | effect of co-treatment on clenbuterol's SNCA expression-lowering effects (SNCA mRNA; SK-N-MC cells, co-treatment with clenbuterol) | α-synuclein protein levels (α-synuclein protein) | SNCA mRNA expression, dose dependence (SNCA mRNA; SK-N-MC cells, indicated doses, 48 hours) | SNCA mRNA levels after 14 days (SNCA mRNA; SK-N-MC cells, 10 μM, 14 days) | α-synuclein mRNA levels with increasing concentrations (SNCA mRNA; SK-N-MC cells, 5, 10, 20 μM, four days) | relative SNCA mRNA abundance (with H3K27Ac blot) (SNCA mRNA; SK-N-MC cells, vs vehicle-treated cells)
CC(C)NCC(O)COc1cccc2ccccc12 (centres unmarked) [Propranolol, propranolol] | increased | blocked clenbuterol's SNCA expression-lowering effects |  |  |  |  | 
CC(C)(C)NCC(O)c1ccc(O)c(CO)c1 (centres unmarked) [Salbutamol, salbutamol] |  |  | significantly, but modestly, reduced | lowered SNCA mRNA expression in a dose-dependent manner |  |  | 
CC(C)(C)NCC(O)c1cc(Cl)c(N)c(Cl)c1 (centres unmarked) [clenbuterol] |  |  | significantly, but modestly, reduced |  | lowered | decrease in α-synuclein mRNA | decreased
